Article PMC5029629, “β-casein nanovehicles for oral delivery of chemotherapeutic drug combinations overcoming P-glycoprotein-mediated multidrug resistance in human gastric cancer cells” (Oncotarget, 2016)

Molecular target: T1, β-casein (β-CN) (Bos taurus, UniProt P02666)
T1 construct: gene CSN2
T1 sequence (P02666 16-224): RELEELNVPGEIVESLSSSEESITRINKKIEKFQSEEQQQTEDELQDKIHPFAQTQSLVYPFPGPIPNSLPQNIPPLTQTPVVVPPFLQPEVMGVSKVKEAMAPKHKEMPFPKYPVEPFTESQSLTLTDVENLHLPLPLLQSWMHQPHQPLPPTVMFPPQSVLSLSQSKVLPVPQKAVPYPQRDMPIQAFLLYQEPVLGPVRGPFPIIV
Test: Trp143 fluorescence quenching, modified Stern-Volmer fit (combined static and dynamic)
Type: binding
Details: PBS pH 7.0, 0.1 M ionic strength, 2.5% DMSO, 23 °C, 1 mg/ml protein (micelles); KSV called association constant but also defined as Stern-Volmer overall quenching constant; ligand poorly soluble
Description: Trp143 fluorescence quenching, modified Stern-Volmer fit (combined static and dynamic) on β-casein (β-CN)

Row | KSV ± SE (10^4 M^-1) | Compound
1 | 1.80 ± 0.16 10^4 M^-1 | COc1cc2c(cc1OC)CN(CCc1ccc(NC(=O)c3cc(OC)c(OC)cc3NC(=O)c3cnc4ccccc4c3)cc1)CC2 [Tariquidar]
2 | 0.96 ± 0.07 10^4 M^-1 | CC(=O)O[C@H]1C(=O)[C@@]2(C)[C@H]([C@H](OC(=O)c3ccccc3)[C@]3(O)C[C@H](OC(=O)[C@H](O)[C@@H](NC(=O)c4ccccc4)c4ccccc4)C(C)=C1C3(C)C)[C@]1(OC(C)=O)CO[C@@H]1C[C@@H]2O [Paclitaxel]
